Source: US11065232B2, “Dihydrotetrabenazine for the treatment of anxiety and psychoses” (ADEPTIO PHARMACEUTICALS LIMITED, priority 2017, dated 2021)

Tests used:
[1] = molecular target: T1, alpha 1A (h) (antagonist radioligand) (Homo sapiens, UniProt P35348); assay: Receptor protein binding studies, alpha 1A
T1 sequence (P35348 1-466): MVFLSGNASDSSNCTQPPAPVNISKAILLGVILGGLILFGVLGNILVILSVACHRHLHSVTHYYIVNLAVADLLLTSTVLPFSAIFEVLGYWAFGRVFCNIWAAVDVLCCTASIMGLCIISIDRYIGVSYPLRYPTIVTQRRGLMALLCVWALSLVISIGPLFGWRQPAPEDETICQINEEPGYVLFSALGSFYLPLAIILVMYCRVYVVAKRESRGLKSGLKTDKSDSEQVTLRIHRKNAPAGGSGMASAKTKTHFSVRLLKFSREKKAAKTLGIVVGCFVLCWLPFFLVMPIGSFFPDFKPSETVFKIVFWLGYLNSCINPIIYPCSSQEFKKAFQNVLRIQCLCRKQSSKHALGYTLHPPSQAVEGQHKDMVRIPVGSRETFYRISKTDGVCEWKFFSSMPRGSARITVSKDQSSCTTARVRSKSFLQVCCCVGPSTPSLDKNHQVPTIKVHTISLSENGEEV
Source text: (§1) The four 3,11b trans-dihydrotetrabenazine isomers (+)-α, (−)-α, (+)-β and (−)-β were subjected to specific binding assays to test their ability to bind to the receptors and transporter proteins described below. The results are set out in Table 1

[2] = molecular target: T2, alpha 2A (h) (antagonist radioligand) (Homo sapiens, UniProt P08913); assay: Receptor protein binding studies, alpha 2A
T2 sequence (P08913 1-465): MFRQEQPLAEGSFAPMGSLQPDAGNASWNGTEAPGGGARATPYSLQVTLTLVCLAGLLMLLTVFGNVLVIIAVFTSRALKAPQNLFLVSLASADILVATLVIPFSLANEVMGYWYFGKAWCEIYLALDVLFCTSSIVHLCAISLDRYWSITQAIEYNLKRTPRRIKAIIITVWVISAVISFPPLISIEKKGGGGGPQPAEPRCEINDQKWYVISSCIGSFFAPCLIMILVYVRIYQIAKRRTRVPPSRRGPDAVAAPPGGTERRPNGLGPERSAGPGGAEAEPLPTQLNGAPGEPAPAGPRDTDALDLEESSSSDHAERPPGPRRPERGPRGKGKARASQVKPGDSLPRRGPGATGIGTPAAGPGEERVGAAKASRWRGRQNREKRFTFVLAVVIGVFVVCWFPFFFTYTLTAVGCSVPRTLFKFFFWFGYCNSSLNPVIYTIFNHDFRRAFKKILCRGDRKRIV
Source text: as §1

[3] = molecular target: T3, alpha 2C (h) (antagonist radioligand) (Homo sapiens, UniProt P18825); assay: Receptor protein binding studies, alpha 2C
T3 sequence (P18825 1-462): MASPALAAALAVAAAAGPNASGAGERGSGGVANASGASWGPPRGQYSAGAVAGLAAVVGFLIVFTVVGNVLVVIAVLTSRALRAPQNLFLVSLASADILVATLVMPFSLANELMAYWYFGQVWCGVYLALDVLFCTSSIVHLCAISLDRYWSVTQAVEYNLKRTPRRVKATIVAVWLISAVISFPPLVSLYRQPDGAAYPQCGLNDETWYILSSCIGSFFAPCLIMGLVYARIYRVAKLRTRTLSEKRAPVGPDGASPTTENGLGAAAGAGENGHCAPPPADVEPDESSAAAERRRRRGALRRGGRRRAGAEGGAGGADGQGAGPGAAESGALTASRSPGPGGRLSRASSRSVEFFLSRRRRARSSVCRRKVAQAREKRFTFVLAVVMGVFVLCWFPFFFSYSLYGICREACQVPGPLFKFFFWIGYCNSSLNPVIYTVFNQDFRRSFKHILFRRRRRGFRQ
Source text: as §1

[4] = molecular target: D1 (h) (antagonist radioligand) (Homo sapiens, UniProt P21728); assay: Receptor protein binding studies, D1
Chain of D1 (h) (antagonist radioligand) (P21728 whole entry): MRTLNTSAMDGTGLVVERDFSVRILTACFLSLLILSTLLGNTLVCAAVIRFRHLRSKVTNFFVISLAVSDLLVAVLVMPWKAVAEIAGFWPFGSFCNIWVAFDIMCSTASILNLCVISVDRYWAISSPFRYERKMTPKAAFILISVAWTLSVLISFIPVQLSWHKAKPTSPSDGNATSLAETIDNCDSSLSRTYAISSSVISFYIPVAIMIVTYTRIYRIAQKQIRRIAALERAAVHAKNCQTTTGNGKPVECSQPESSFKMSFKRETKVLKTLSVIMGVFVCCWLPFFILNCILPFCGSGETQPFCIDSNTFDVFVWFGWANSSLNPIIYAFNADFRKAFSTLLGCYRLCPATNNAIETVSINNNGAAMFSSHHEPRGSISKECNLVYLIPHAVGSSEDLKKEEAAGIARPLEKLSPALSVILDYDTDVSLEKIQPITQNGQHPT
Source text: as §1

[5] = molecular target: D3 (h) (antagonist radioligand) (Homo sapiens, UniProt P35462); assay: Receptor protein binding studies, D3
Chain of D3 (h) (antagonist radioligand) (P35462 whole entry): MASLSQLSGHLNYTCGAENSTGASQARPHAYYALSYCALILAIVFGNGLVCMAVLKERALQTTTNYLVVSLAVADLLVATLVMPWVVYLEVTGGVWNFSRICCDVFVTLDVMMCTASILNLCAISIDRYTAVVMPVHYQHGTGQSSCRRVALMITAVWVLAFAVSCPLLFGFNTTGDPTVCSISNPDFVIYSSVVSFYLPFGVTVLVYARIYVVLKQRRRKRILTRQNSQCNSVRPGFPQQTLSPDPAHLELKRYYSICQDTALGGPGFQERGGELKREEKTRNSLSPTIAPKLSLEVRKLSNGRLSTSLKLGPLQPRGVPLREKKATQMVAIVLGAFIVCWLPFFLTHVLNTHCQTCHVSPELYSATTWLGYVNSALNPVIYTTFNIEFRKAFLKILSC
Source text: as §1

[6] = molecular target: T4, D4.4 (h) (antagonist radioligand) (Homo sapiens, UniProt P21917); assay: Receptor protein binding studies, D4.4
T4 sequence (P21917 1-419): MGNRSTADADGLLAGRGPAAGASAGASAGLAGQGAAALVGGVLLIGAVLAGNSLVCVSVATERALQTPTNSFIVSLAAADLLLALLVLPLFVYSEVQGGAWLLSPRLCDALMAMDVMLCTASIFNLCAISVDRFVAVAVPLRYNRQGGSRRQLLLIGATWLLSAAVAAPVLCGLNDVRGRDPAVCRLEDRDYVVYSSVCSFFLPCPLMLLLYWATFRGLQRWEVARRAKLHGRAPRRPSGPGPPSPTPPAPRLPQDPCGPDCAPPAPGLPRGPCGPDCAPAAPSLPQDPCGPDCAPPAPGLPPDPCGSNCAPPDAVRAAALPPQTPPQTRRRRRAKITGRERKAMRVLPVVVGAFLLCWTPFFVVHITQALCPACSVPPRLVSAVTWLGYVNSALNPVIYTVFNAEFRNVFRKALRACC
Source text: as §1

[7] = molecular target: D5 (h) (antagonist radioligand) (Homo sapiens, UniProt P21918); assay: Receptor protein binding studies, D5
Chain of D5 (h) (antagonist radioligand) (P21918 whole entry): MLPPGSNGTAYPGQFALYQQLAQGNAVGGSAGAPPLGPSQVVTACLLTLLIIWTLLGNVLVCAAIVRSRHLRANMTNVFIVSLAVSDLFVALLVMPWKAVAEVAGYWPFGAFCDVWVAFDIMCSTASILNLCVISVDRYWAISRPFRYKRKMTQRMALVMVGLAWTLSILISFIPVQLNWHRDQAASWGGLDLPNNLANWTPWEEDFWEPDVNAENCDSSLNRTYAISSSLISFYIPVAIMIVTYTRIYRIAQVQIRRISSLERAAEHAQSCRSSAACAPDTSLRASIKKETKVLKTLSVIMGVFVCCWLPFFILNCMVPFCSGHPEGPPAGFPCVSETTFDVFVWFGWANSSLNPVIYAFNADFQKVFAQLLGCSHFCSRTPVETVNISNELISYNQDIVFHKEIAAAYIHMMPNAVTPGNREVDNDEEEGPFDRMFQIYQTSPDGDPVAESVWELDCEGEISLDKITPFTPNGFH
Source text: as §1

[8] = molecular target: Dopamine D2L (Homo sapiens, UniProt P14416); assay: Receptor protein binding studies, Dopamine D2L
Chain of Dopamine D2L (P14416 whole entry): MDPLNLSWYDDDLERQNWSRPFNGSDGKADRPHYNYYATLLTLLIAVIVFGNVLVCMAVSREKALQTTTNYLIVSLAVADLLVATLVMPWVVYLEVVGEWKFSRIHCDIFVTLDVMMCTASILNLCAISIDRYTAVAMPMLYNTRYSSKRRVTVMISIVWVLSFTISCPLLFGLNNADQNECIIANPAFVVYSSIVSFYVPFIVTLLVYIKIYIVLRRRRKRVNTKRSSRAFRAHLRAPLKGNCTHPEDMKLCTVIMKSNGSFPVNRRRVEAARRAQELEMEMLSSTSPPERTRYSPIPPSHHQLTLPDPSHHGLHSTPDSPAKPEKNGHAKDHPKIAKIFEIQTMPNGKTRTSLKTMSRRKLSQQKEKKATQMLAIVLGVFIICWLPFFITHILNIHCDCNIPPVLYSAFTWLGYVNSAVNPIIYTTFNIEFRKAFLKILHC
Source text: as §1

[9] = tested on: I2 (antagonist radioligand); assay: Receptor protein binding studies, I2
Source text: as §1

[10] = molecular target: 5-HT4e (h) (antagonist radioligand) (Homo sapiens, UniProt Q13639); assay: Receptor protein binding studies, 5-HT4e
Chain of 5-HT4e (h) (antagonist radioligand) (Q13639 1-378 isoform Q13639-5): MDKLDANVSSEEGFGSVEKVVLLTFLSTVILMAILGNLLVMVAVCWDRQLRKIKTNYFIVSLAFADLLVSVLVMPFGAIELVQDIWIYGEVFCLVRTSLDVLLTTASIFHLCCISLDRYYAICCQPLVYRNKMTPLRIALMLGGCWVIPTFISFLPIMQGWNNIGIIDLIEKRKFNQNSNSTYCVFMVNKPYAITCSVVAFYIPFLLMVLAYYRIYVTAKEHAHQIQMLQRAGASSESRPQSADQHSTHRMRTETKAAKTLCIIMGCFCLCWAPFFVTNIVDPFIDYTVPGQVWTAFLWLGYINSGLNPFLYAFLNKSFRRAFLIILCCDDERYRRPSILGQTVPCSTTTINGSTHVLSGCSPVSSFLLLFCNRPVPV
Source text: as §1

[11] = molecular target: 5-HT6 (h) (Homo sapiens, UniProt P50406); assay: Receptor protein binding studies, 5-HT6
Chain of 5-HT6 (h) (P50406 whole entry): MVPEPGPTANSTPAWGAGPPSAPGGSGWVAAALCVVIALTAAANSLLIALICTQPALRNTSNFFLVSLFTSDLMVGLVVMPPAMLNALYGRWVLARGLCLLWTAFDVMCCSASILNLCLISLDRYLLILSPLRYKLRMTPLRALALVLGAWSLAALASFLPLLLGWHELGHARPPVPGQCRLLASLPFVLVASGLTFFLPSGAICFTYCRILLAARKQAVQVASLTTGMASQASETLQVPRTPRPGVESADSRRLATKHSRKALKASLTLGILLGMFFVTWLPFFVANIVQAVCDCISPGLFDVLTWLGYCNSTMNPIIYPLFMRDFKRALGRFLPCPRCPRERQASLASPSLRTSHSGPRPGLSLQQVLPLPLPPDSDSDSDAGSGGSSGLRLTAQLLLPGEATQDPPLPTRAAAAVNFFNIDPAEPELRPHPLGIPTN
Source text: as §1

[12] = molecular target: Sigma 1 (h) (agonist radioligand) (Homo sapiens, UniProt Q99720); assay: Receptor protein binding studies, Sigma 1
Chain of Sigma 1 (h) (agonist radioligand) (Q99720 whole entry): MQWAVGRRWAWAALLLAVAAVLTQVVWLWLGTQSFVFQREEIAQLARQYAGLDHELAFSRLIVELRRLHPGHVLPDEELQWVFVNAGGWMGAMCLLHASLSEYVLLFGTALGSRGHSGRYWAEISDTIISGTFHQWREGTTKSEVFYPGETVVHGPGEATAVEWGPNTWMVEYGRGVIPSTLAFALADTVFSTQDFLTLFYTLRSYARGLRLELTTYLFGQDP
Source text: as §1

[13] = molecular target: hERG (membrane preparation) (antagonist radioligand) (Homo sapiens, UniProt Q12809); assay: Receptor protein binding studies, hERG
Chain of hERG (membrane preparation) (antagonist radioligand) (Q12809 whole entry): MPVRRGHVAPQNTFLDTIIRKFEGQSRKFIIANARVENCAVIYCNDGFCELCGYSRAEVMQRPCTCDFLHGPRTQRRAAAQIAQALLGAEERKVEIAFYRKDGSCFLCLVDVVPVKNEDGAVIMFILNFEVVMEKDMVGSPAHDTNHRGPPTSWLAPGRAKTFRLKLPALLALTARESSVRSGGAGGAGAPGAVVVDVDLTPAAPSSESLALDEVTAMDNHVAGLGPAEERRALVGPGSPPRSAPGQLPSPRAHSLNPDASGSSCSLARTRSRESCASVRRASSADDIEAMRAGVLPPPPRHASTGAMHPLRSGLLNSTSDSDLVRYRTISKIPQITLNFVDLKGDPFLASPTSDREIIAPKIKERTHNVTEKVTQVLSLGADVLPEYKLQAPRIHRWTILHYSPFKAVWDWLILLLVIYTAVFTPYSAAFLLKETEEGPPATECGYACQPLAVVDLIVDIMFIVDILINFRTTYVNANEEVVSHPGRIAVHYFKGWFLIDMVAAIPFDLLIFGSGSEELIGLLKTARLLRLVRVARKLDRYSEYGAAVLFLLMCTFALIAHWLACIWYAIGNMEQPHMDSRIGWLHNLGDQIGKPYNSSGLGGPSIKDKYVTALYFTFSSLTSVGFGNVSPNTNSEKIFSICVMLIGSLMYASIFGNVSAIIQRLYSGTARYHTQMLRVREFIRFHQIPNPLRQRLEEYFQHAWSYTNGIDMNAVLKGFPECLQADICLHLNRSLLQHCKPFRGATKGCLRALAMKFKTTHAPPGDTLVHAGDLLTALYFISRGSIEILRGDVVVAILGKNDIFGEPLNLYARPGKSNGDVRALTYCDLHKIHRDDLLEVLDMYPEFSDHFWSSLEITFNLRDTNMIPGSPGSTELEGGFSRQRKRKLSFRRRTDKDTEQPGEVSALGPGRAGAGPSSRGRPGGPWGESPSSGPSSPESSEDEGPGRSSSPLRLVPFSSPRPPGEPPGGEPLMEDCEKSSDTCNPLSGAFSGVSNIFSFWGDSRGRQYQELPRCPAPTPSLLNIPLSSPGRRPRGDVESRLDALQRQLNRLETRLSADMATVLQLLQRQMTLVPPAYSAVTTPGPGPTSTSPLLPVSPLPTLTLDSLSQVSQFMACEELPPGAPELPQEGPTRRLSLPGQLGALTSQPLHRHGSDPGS
Source text: as §1

[14] = CONC 1.0E−05 (unit not given), 10 μM
[15] = CONC 1.0E−06 (unit not given), 1 μM

Substance	% Inhibition of specific binding ([1]; CONC 1.0E−05 (unit not given))	% Inhibition of specific binding ([1]; CONC 1.0E−06 (unit not given))	% Inhibition of specific binding ([2]; CONC 1.0E−05 (unit not given))	% Inhibition of specific binding ([2]; CONC 1.0E−06 (unit not given))	% Inhibition of specific binding ([3]; CONC 1.0E−05 (unit not given))	% Inhibition of specific binding ([3]; CONC 1.0E−06 (unit not given))	% Inhibition of specific binding ([4]; CONC 1.0E−05 (unit not given))	% Inhibition of specific binding ([4]; CONC 1.0E−06 (unit not given))	% Inhibition of specific binding ([5]; CONC 1.0E−05 (unit not given))	% Inhibition of specific binding ([5]; CONC 1.0E−06 (unit not given))	activity at the dopamine D4 receptor (in words) [6]	% Inhibition of specific binding [6, 14]	% Inhibition of specific binding [6, 15]	% Inhibition of specific binding ([7]; CONC 1.0E−05 (unit not given))	% Inhibition of specific binding ([7]; CONC 1.0E−06 (unit not given))	% Inhibition of specific binding ([8]; CONC 1.0E−05 (unit not given))	% Inhibition of specific binding ([8]; CONC 1.0E−06 (unit not given))	% Inhibition of specific binding ([9]; CONC 1.0E−05 (unit not given))	% Inhibition of specific binding ([9]; CONC 1.0E−06 (unit not given))	% Inhibition of specific binding ([10]; CONC 1.0E−05 (unit not given))	other results
(+)-α-dihydrotetrabenazine [(+)-Alpha]	12%	7%	7%	5%	5%	4%	−2%	0%	2%	−14%	essentially inactive	−7%	−3%	−8%	−7%	14%	10%	20%	1%	40%	% Inhibition of specific binding ([10]; CONC 1.0E−06 (unit not given)): 2%; % Inhibition of specific binding ([11]; CONC 1.0E−05 (unit not given)): 35%; % Inhibition of specific binding ([11]; CONC 1.0E−06 (unit not given)): −1%; % Inhibition of specific binding ([12]; CONC 1.0E−05 (unit not given)): 96%; % Inhibition of specific binding ([12]; CONC 1.0E−06 (unit not given)): 64%; % Inhibition of specific binding ([13]; CONC 1.0E−05 (unit not given)): 33%; % Inhibition of specific binding ([13]; CONC 1.0E−06 (unit not given)): 2%
(+)-β-dihydrotetrabenazine [(+)-Beta]	33%	2%	11%	−1%	12%	−7%	8%	0%	12%	−18%	essentially inactive	2%	−3%	−5%	−8%	18%	1%	11%	6%	19%	% Inhibition of specific binding ([10]; CONC 1.0E−06 (unit not given)): −4%; % Inhibition of specific binding ([11]; CONC 1.0E−05 (unit not given)): 6%; % Inhibition of specific binding ([11]; CONC 1.0E−06 (unit not given)): 15%; % Inhibition of specific binding ([12]; CONC 1.0E−05 (unit not given)): 99%; % Inhibition of specific binding ([12]; CONC 1.0E−06 (unit not given)): 92%; % Inhibition of specific binding ([13]; CONC 1.0E−05 (unit not given)): 8%; % Inhibition of specific binding ([13]; CONC 1.0E−06 (unit not given)): 3%
(−)-α-dihydrotetrabenazine [(−)-Alpha]	6%	1%	65%	30%	69%	17%	45%	5%	79%	26%	significantly less active	65%	19%	23%	−3%	68%	27%	12%	13%	26%	% Inhibition of specific binding ([10]; CONC 1.0E−06 (unit not given)): 4%; % Inhibition of specific binding ([11]; CONC 1.0E−05 (unit not given)): 29%; % Inhibition of specific binding ([11]; CONC 1.0E−06 (unit not given)): 6%; % Inhibition of specific binding ([12]; CONC 1.0E−05 (unit not given)): 78%; % Inhibition of specific binding ([12]; CONC 1.0E−06 (unit not given)): 40%; % Inhibition of specific binding ([13]; CONC 1.0E−05 (unit not given)): 19%; % Inhibition of specific binding ([13]; CONC 1.0E−06 (unit not given)): 5%
